The values that follow come from patent publication US4742064A, “Antiviral carbocyclic analogs of xylofuranosylpurines” (Regents of the University of Minnesota, priority 1985, dated 1988).

“Also recorded” adds a separate entry of the source.

In one series the test system is HSV-2. The settings on record: prior literature; cited from earlier work.
Another series has as its system HSV-1. To be noted: prior literature; cited from earlier work.
The subject of series [1] is P-388 mouse leukemia cells. Put plainly: P-388 mouse leukemia cell culture cytotoxicity assay. Format: cell-based. The settings on record: for IC50: Mus musculus, P388, P-388 leukemia cells in culture, read-out: ED50 (inhibitory concentration, cytotoxicity); for cytotoxicity (in words) / cytotoxicity relative to the corresponding non-aza analogs 9a and 10a (in words): P-388 mouse leukemia cell culture. An excerpt:
*Assay Technique: R. G. Almquist and R. Vince, J. Med. Chem., 16, 1396

In another series the test system is HSV-1 (E-377). Briefly: cytopathogenic effects (CPE)-inhibition procedure, HSV-1, Vero cells. The settings on record: for VR (virus rating), HSV-1 (E-377): HSV-1 strain E-377, Vero cell monolayers, VR ≥ 1.0 = definite activity, 0.5-0.9 marginal to moderate, < 0.5 usually no significant activity; for antiviral activity against HSV-1 (in words): Table II data. (Cytopathic effects are the visible damage that an infection or toxin causes in cultured cells.)

The test system of a further series is HSV-2 (MS). Put plainly: cytopathogenic effects (CPE)-inhibition procedure, HSV-2, Vero cells. To be noted: for VR (virus rating), HSV-2 (MS): HSV-2 strain MS, Vero cell monolayers, VR ≥ 1.0 = definite activity, 0.5-0.9 marginal to moderate, < 0.5 usually no significant activity; for antiviral activity against HSV-2 (in words): Table II data.
For another series, the system named is influenza virus. Briefly: activity against an influenza virus. Format: cell-based.

From the text for HSV-1 (E-377): (§1) The analogs were evalulated by a cytopathogenic effects (CPE)-inhibition procedure. The host cell culture systems employed were pre-grown Vero cell monolayers.
(§2) *VR = virus rating: A measurement of selective antiviral activity which
(§3) takes into account the degree of inhibition of virusinduced cytopathogeni
(§4) effects (CPE) and the degree of cytotoxicity produced by the test
(§5) compound, determined by a modification of the method of Ehrlich et al.
(§6) definite (+) antiviral activity, a VR of 0.5-0.9 indicates marginal to
(§7) moderate (+) antiviral activity, and a VR < 0.5 usually indicates no (-)
significant antiviral activity.
From the text for HSV-2 (MS): as §1, §2, §3, §4, §5, §6, §7
significant antiviral activity.

Consider `Nc1nc(N)c2ncn([C@@H]3C[C@H](CO)[C@@H](O)[C@@H]3O)c2n1` (relative stereo), for which the “activity against HSV-2 (in words)” value in the series on HSV-2 is “inactive”. Besides, the “activity against HSV-1 (in words)” value in the series on HSV-1 is reported as “exhibited activity”.
In the case of `Nc1nc(Cl)c2ncn([C@@H]3C[C@H](CO)[C@H](O)[C@H]3O)c2n1` (relative stereo) [Compound 8, (d1)-(1 α, 2 β, 3 α, 5 α)-3-(2-Amino-6-chloro-9H-purin-9-yl)-5-(hydroxymethyl)-1,2-cyclopentanediol], the IC50 in series [1] amounted to 220 µM.
Regarding `Nc1nc2c(ncn2[C@@H]2C[C@H](CO)[C@H](O)[C@H]2O)c(=O)[nH]1` (relative stereo) [Compound 9a, (d1)-2-Amino-1,9-dihydro-9-[(1 α,2 β,3 α,4 α)-2,3-dihydroxy-4-(hydroxymethyl)cyclopentyl]-6H-purin-6-one], in the series on HSV-1 (E-377), the “VR (virus rating), HSV-1 (E-377)” value is 5.6 and the “antiviral activity against HSV-1 (in words)” value is listed as “substantial antiviral activity”. In addition, the “profile of activity in the antiviral assay (in words)” value in the series on HSV-1 (E-377) (comparison among analogs of Table II) was “best profile of activity”. Besides, in the series with HSV-2 (MS), the “VR (virus rating), HSV-2 (MS)” value stood at 3.9 and the “antiviral activity against HSV-2 (in words)” value is on record as “active”. For the same molecule, in series [1], the IC50 is 8.9 µM and the “cytotoxicity (in words)” value is reported as “significant cytotoxicities”.
As to `Nc1nc(N)c2ncn([C@@H]3C[C@H](CO)[C@H](O)[C@H]3O)c2n1` (relative stereo) [Compound 10a], in the series with HSV-1 (E-377), the “VR (virus rating), HSV-1 (E-377)” value is 2.7 and the “antiviral activity against HSV-1 (in words)” value was “substantial antiviral activity”. Besides, the IC50 in series [1] was determined as 39 µM.
As for `Nc1nc(Cl)c2nnn([C@@H]3C[C@H](CO)[C@H](O)[C@H]3O)c2n1` (relative stereo) [Compound 11, (d1)-(1 α,2 β,3 α,5 α)-3-(5-Amino-7-Chloro-3H-1,2,3-triazalo [4,5-d]pyrimidin-3-yl)-5-(hydroxymethyl)-1,2-cyclopentanediol], in series [1], the IC50 was found to be 50 µM.
Still for that read-out and setting: to `COc1nc(N)nc2c1nnn2[C@@H]1C[C@H](CO)[C@H](O)[C@H]1O` (relative stereo) [Compound 12, (d1)-(1 α,2 β,3 α,5 α)-3-(5-Amino-7-methoxy-3H-1,2,3-triazalo [4,5-d]pyrimidin-3-yl)-5-(hydroxymethyl)-1,2-cyclopentanediol] belongs 63 µM.
For `Nc1nc2c(nnn2[C@@H]2C[C@H](CO)[C@H](O)[C@H]2O)c(=O)[nH]1` (relative stereo) [Compound 13a, (d1)-5-Amino-3,6-dihydro-3-[(1 α,2 β,3 α,5 α)-2,3-dihydroxy-4-(hydroxymethyl)cyclopentyl]-7H-1,2,3-triazalo[4,5-d]pyrimidin-7-one], in the series with HSV-1 (E-377), the “VR (virus rating), HSV-1 (E-377)” value stood at 2.4 and the “antiviral activity against HSV-1 (in words)” value is recorded as “substantial antiviral activity”. In addition, in the series on HSV-2 (MS), the “VR (virus rating), HSV-2 (MS)” value is 1.3 and the “antiviral activity against HSV-2 (in words)” value was “active”. In addition, the “activity against an influenza virus (in words)” value in the series on influenza virus is reported as “significant activity”. In series [1], the IC50 was 1.6 µM; the “cytotoxicity (in words)” value is “inhibition at the lowest concentration; also recorded: significant cytotoxicities”; the “cytotoxicity relative to the corresponding non-aza analogs 9a and 10a (in words)” value was “more active”.
With `Nc1nc(N)c2nnn([C@@H]3C[C@H](CO)[C@H](O)[C@H]3O)c2n1` (relative stereo) [Compound 14a, (d1)-(1 α,2 β,3 α,5 α)-3-(5,7-Diamino-3H-1,2,3-triazalo[4,5-d]pyrimidin-3-yl)-5-(hydroxymethyl)-1,2-cyclopentanediol], in the series on HSV-1 (E-377), the “VR (virus rating), HSV-1 (E-377)” value is 2.0 and the “antiviral activity against HSV-1 (in words)” value is listed as “substantial antiviral activity”. For the same molecule, in series [1], the IC50 was found to be 5.3 µM; the “cytotoxicity (in words)” value is reported as “significant cytotoxicities”; the “cytotoxicity relative to the corresponding non-aza analogs 9a and 10a (in words)” value is “more active”.
As to `Nc1ncnc2c1ncn2[C@@H]1O[C@H](CO)[C@@H](O)[C@@H]1O.O` [Ara-A, 9-β-D-arabinofuranosyladenine monohydrate, reference compound], the “VR (virus rating), HSV-1 (E-377)” value with HSV-1 (E-377) was 1.7. In the series with HSV-2 (MS), the “VR (virus rating), HSV-2 (MS)” value came to 1.6.
